Measured values as given in US10597388B2, “Pyridazinone herbicides” (FMC CORPORATION, priority 2014, dated 2020).

Experiments:
Experiment in all cases: Test E greenhouse herbicide test, pre- and postemergence
Assay type in all cases: in vivo
[1] = test system: crabgrass, large (large crabgrass, Digitaria sanguinalis); conditions: Preemergence
How it was run: (§1)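 Scores (0–100, visual, vs controls) reflect greenhouse growth of 14 to 21 d after treatment. Application was pre-emergence to silt loam or post-emergence at the 1- to 4-leaf stage.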

[2] = test system: ragweed (common ragweed, Ambrosia elatior)
How it was run: as §1

[3] = test system: johnsongrass (Sorghum halepense); conditions: Preemergence
How it was run: as §1

[4] = test system: foxtail, giant (giant foxtail, Setaria faberii); conditions: Preemergence
How it was run: as §1

corn (Zea mays) = test system: corn (Zea mays)
How it was run: as §1

[5] = test system: waterhemp (common waterhemp, Amaranthus rudis)
How it was run: as §1

[6] = test system: velvetleaf (Abutilon theophrasti); conditions: Preemergence
How it was run: as §1

[7] = test system: crabgrass, Brazilian (Brazilian crabgrass, Digitaria horizontalis)
How it was run: as §1

[8] = test system: dayflower (Virginia (VA) dayflower, Commelina virginica)
How it was run: as §1

[9] = test system: goosegrass (Eleusine indica); conditions: Preemergence
How it was run: as §1

[10] = test system: field bindweed (Convolvulus arvensis)
How it was run: as §1

[11] = test system: momingglory (Ipomoea coccinea); conditions: Preemergence
How it was run: as §1

[12] = test system: nightshade (eastern black nightshade, Solanum ptycanthum); conditions: Preemergence
How it was run: as §1

[13] = test system: horseweed (Conyza canadensis)
How it was run: as §1

[14] = test system: pigweed, palmer (palmer pigweed, Amaranthus palmeri)
How it was run: as §1

[15] = test system: surinam grass (Brachiaria decumbens); conditions: Preemergence
How it was run: as §1

[16] = test system: arrowleaf sida (Sida rhombifolia)
How it was run: as §1

[17] = 62 g ai/ha, scale 0 to 100 (0 no effect, 100 complete control)
[18] = 125 g ai/ha, scale 0 to 100 (0 no effect, 100 complete control)
[19] = 31 g ai/ha, scale 0 to 100, 0 no effect, 100 complete control
[20] = 250 g ai/ha, visual, scale 0 no effect to 100 complete control
[21] = 62 g ai/ha, Postemergence, scale 0 to 100 (0 no effect, 100 complete control)
[22] = 62 g ai/ha, Preemergence, scale 0 to 100 (0 no effect, 100 complete control)
[23] = 125 g ai/ha, Postemergence, scale 0 to 100 (0 no effect, 100 complete control)
[24] = 125 g ai/ha, Preemergence, scale 0 to 100 (0 no effect, 100 complete control)
[25] = 250 g ai/ha, Postemergence, scale 0 to 100 (0 no effect, 100 complete control)
[26] = Postemergence, 31 g ai/ha, visual, scale 0 no effect to 100 complete control
[27] = Preemergence, 31 g ai/ha, scale 0 to 100, 0 no effect, 100 complete control
[28] = Preemergence, 250 g ai/ha, visual, scale 0 no effect to 100 complete control
[29] = 125 g ai/ha, visual, scale 0 no effect to 100 complete control
[30] = Preemergence, 125 g ai/ha, visual, scale 0 no effect to 100 complete control

SMILES: COC(=O)Oc1c(C)nn(C)c(=O)c1-c1c(C)sc2c(C)cc(C)cc12 [Compound 81]
- Plant response rating, Crabgrass, Large [1, 17]: 75
- Plant response rating, Crabgrass, Large [1, 18]: 90
- Plant response rating, Crabgrass, Large [1, 19]: 50
- Plant response rating, Crabgrass, Large [1, 20]: 98
- Plant response rating, Ragweed [2, 21]: 60
- Plant response rating, Ragweed [2, 22]: 100
- Plant response rating, Ragweed [2, 23]: 85
- Plant response rating, Ragweed [2, 24]: 100
- Plant response rating, Ragweed [2, 25]: 80
- Plant response rating, Ragweed [2, 26]: 60
- Plant response rating, Ragweed [2, 27]: 90
- Plant response rating, Ragweed [2, 28]: 100
- Plant response rating, Johnsongrass [3, 17]: 90
- Plant response rating, Johnsongrass [3, 18]: 65
- Plant response rating, Johnsongrass [3, 19]: 70
- Plant response rating, Johnsongrass [3, 20]: 100
- Plant response rating, Foxtail, Giant [4, 17]: 98
- Plant response rating, Foxtail, Giant [4, 18]: 98
- Plant response rating, Foxtail, Giant [4, 19]: 75
- Plant response rating, Foxtail, Giant [4, 20]: 100
- Plant response rating, Corn (corn (Zea mays); [21]): 0
- Plant response rating, Corn (corn (Zea mays); [22]): 0
- Plant response rating, Corn (corn (Zea mays); [23]): 5
- Plant response rating, Corn (corn (Zea mays); [24]): 0
- Plant response rating, Corn (corn (Zea mays); [25]): 5
- Plant response rating, Corn (corn (Zea mays); [26]): 0
- Plant response rating, Corn (corn (Zea mays); [27]): 0
- Plant response rating, Corn (corn (Zea mays); [28]): 0
- Plant response rating, Waterhemp [5, 22]: 90
- Plant response rating, Waterhemp [5, 23]: 60
- Plant response rating, Waterhemp [5, 24]: 90
- Plant response rating, Waterhemp [5, 25]: 75
- Plant response rating, Waterhemp [5, 26]: 50
- Plant response rating, Waterhemp [5, 27]: 60
- Plant response rating, Waterhemp [5, 28]: 90
- Plant response rating, Velvetleaf [6, 17]: 70
- Plant response rating, Velvetleaf [6, 18]: 90
- Plant response rating, Velvetleaf [6, 19]: 10
- Plant response rating, Velvetleaf [6, 20]: 95
- Plant response rating, Crabgrass, Brazil [7, 21]: 40
- Plant response rating, Crabgrass, Brazil [7, 22]: 95
- Plant response rating, Crabgrass, Brazil [7, 23]: 50
- Plant response rating, Crabgrass, Brazil [7, 24]: 90
- Plant response rating, Crabgrass, Brazil [7, 25]: 50
- Plant response rating, Crabgrass, Brazil [7, 26]: 40
- Plant response rating, Crabgrass, Brazil [7, 27]: 65
- Plant response rating, Crabgrass, Brazil [7, 28]: 100
- Plant response rating, Dayflower, VA [8, 21]: 70
- Plant response rating, Dayflower, VA [8, 22]: 15
- Plant response rating, Dayflower, VA [8, 23]: 80
- Plant response rating, Dayflower, VA [8, 24]: 35
- Plant response rating, Dayflower, VA [8, 25]: 80
- Plant response rating, Dayflower, VA [8, 26]: 60
- Plant response rating, Dayflower, VA [8, 27]: 10
- Plant response rating, Dayflower, VA [8, 28]: 65
- Plant response rating, Goosegrass [9, 17]: 40
- Plant response rating, Goosegrass [9, 18]: 70
- Plant response rating, Goosegrass [9, 19]: 20
- Plant response rating, Goosegrass [9, 20]: 80
- Plant response rating, Field Bindweed [10, 21]: 65
- Plant response rating, Field Bindweed [10, 22]: 0
- Plant response rating, Field Bindweed [10, 23]: 75
- Plant response rating, Field Bindweed [10, 24]: 75
- Plant response rating, Field Bindweed [10, 25]: 85
- Plant response rating, Field Bindweed [10, 26]: 60
- Plant response rating, Field Bindweed [10, 27]: 0
- Plant response rating, Field Bindweed [10, 28]: 100
- Plant response rating, Morningglory [11, 17]: 85
- Plant response rating, Morningglory [11, 18]: 100
- Plant response rating, Morningglory [11, 19]: 60
- Plant response rating, Morningglory [11, 20]: 100
- Plant response rating, Nightshade [12, 17]: 90
- Plant response rating, Nightshade [12, 18]: 100
- Plant response rating, Nightshade [12, 19]: 80
- Plant response rating, Nightshade [12, 20]: 98
- Plant response rating, Horseweed [13, 21]: 75
- Plant response rating, Horseweed [13, 22]: 100
- Plant response rating, Horseweed [13, 23]: 65
- Plant response rating, Horseweed [13, 24]: 100
- Plant response rating, Horseweed [13, 25]: 85
- Plant response rating, Horseweed [13, 26]: 50
- Plant response rating, Horseweed [13, 27]: 90
- Plant response rating, Horseweed [13, 28]: 100
- Plant response rating, Pigweed, Palmer [14, 21]: 20
- Plant response rating, Pigweed, Palmer [14, 22]: 75
- Plant response rating, Pigweed, Palmer [14, 24]: 75
- Plant response rating, Pigweed, Palmer [14, 25]: 50
- Plant response rating, Pigweed, Palmer [14, 26]: 30
- Plant response rating, Pigweed, Palmer [14, 27]: 35
- Plant response rating, Pigweed, Palmer [14, 28]: 100
- Plant response rating, Surinam Grass [15, 17]: 90
- Plant response rating, Surinam Grass [15, 18]: 95
- Plant response rating, Surinam Grass [15, 19]: 70
- Plant response rating, Surinam Grass [15, 20]: 95
- Plant response rating, Arrowleaf Sida [16, 21]: 40
- Plant response rating, Arrowleaf Sida [16, 22]: 60
- Plant response rating, Arrowleaf Sida [16, 23]: 30
- Plant response rating, Arrowleaf Sida [16, 24]: 70
- Plant response rating, Arrowleaf Sida [16, 25]: 60
- Plant response rating, Arrowleaf Sida [16, 26]: 40
- Plant response rating, Arrowleaf Sida [16, 27]: 40
- Plant response rating, Arrowleaf Sida [16, 28]: 70

SMILES: CCOC(=O)Oc1c(C)nn(C)c(=O)c1-c1c(CC)ccc2ccccc12 [Compound 37]
- Plant response rating, Crabgrass, Large [1, 17]: 75
- Plant response rating, Crabgrass, Large [1, 19]: 50
- Plant response rating, Crabgrass, Large [1, 29]: 80
- Plant response rating, Crabgrass, Large [1, 20]: 90
- Plant response rating, Ragweed [2, 22]: 90
- Plant response rating, Ragweed [2, 24]: 95
- Plant response rating, Ragweed [2, 27]: 50
- Plant response rating, Ragweed [2, 28]: 98
- Plant response rating, Johnsongrass [3, 17]: 0
- Plant response rating, Johnsongrass [3, 19]: 0
- Plant response rating, Johnsongrass [3, 29]: 100
- Plant response rating, Johnsongrass [3, 20]: 100
- Plant response rating, Foxtail, Giant [4, 17]: 70
- Plant response rating, Foxtail, Giant [4, 19]: 65
- Plant response rating, Foxtail, Giant [4, 29]: 80
- Plant response rating, Foxtail, Giant [4, 20]: 90
- Plant response rating, Corn (corn (Zea mays); [22]): 0
- Plant response rating, Corn (corn (Zea mays); [27]): 0
- Plant response rating, Corn (corn (Zea mays); [30]): 0
- Plant response rating, Corn (corn (Zea mays); [28]): 0
- Plant response rating, Waterhemp [5, 22]: 75
- Plant response rating, Waterhemp [5, 24]: 98
- Plant response rating, Waterhemp [5, 27]: 0
- Plant response rating, Waterhemp [5, 28]: 100
- Plant response rating, Velvetleaf [6, 17]: 50
- Plant response rating, Velvetleaf [6, 18]: 70
- Plant response rating, Velvetleaf [6, 19]: 30
- Plant response rating, Velvetleaf [6, 20]: 100
- Plant response rating, Crabgrass, Brazil [7, 22]: 85
- Plant response rating, Crabgrass, Brazil [7, 27]: 70
- Plant response rating, Crabgrass, Brazil [7, 30]: 90
- Plant response rating, Crabgrass, Brazil [7, 28]: 95
- Plant response rating, Dayflower, VA [8, 22]: 5
- Plant response rating, Dayflower, VA [8, 27]: 0
- Plant response rating, Dayflower, VA [8, 30]: 40
- Plant response rating, Dayflower, VA [8, 28]: 60
- Plant response rating, Goosegrass [9, 17]: 35
- Plant response rating, Goosegrass [9, 19]: 35
- Plant response rating, Goosegrass [9, 29]: 75
- Plant response rating, Goosegrass [9, 20]: 80
- Plant response rating, Field Bindweed [10, 22]: 90
- Plant response rating, Field Bindweed [10, 27]: 75
- Plant response rating, Field Bindweed [10, 30]: 85
- Plant response rating, Field Bindweed [10, 28]: 100
- Plant response rating, Morningglory [11, 17]: 40
- Plant response rating, Morningglory [11, 18]: 50
- Plant response rating, Morningglory [11, 19]: 15
- Plant response rating, Morningglory [11, 20]: 65
- Plant response rating, Nightshade [12, 17]: 80
- Plant response rating, Nightshade [12, 18]: 98
- Plant response rating, Nightshade [12, 19]: 90
- Plant response rating, Nightshade [12, 20]: 98
- Plant response rating, Horseweed [13, 22]: 100
- Plant response rating, Horseweed [13, 27]: 100
- Plant response rating, Horseweed [13, 30]: 100
- Plant response rating, Horseweed [13, 28]: 100
- Plant response rating, Pigweed, Palmer [14, 22]: 90
- Plant response rating, Pigweed, Palmer [14, 24]: 100
- Plant response rating, Pigweed, Palmer [14, 27]: 0
- Plant response rating, Pigweed, Palmer [14, 28]: 100
- Plant response rating, Surinam Grass [15, 17]: 75
- Plant response rating, Surinam Grass [15, 18]: 75
- Plant response rating, Surinam Grass [15, 19]: 50
- Plant response rating, Surinam Grass [15, 20]: 90
- Plant response rating, Arrowleaf Sida [16, 22]: 85
- Plant response rating, Arrowleaf Sida [16, 27]: 70
- Plant response rating, Arrowleaf Sida [16, 30]: 90
- Plant response rating, Arrowleaf Sida [16, 28]: 98
